Assay results as given in US20230172894A1, “COMBINATION TREATMENT FOR FUMARATE-RELATED DISEASES” (IMCYSE SA, priority 2020, published 2023).

System: experimental auto-immune encephalomyelitis (EAE) development in mice
Assay: Example 1 (repeated experiment): plasma neurofilament light (NF-L) levels in EAE mice, Simoa NF-light assay
Format: in vivo, female C57BL/6 mice
Details: Example 1 regimen repeated; Day 28 plasma; vs negative control
Description: On Day 28, blood was collected from all mice into tubes containing K2EDTA and mixed gently. Blood was then centrifuged at ˜10000 g for 5 minutes. Plasma was transferred into Eppendorf tubes and stored at −80° C. until shipment to Quanterix™. Plasma Neurofilament light (NF-L) protein levels were quantified using Simoa® NF-light Advantage kit, a digital immunoassay for the quantitative determination of NF-L in serum, plasma and CSF. The used antibodies (Uman Diagnostics, Umea Sweden) also cross react with murine, bovine and macaque NF-L epitopes and as such, this assay can be used for research with these species. All samples were tested in duplicate at a dilution factor of 40×.
Neurofilament light (NF-L) is a 68 kDa cytoskeletal filament protein that is expressed in neurons, as one of the major components of the neuronal cytoskeleton that provide structural support for the axon. Neurofilaments can be released following axonal damage or neuronal degeneration.

HCPYCGWYRSPFSRVVHLYR [IMCY-0189]
plasma NF-L levels: reduced NF-L levels
